Test systems include A549 NSCLC; CAKI-1 renal; HS 578T breast; LOX IMVI melanoma; OVCAR-3 ovarian; OVCAR-8 ovarian; SK-OV-3 ovarian; SN12C renal; U251 CNS; UACC-257 melanoma.
Common to all, as to experiment: inhibition of tumour cell growth, NCI panel, 48 h

Molecules are shown by their SMILES.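 Five compound concentrations were applied to cells in 96-well plates for 48 hours; endpoints were derived by simple linear interpolation of the resulting dose-response curve. GI50: concentration for 50% inhibition of growth. TGI denotes the concentration required for complete inhibition of growth.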 A value given as a limit tells only on which side of the number the result lay.

As for `Cc1cn([C@H]2C[C@H](O)[C@@H](CO)O2)c(=O)nc1N`, the TGI in the assay on A549 NSCLC, with CAKI-1 renal, with HS 578T breast, in the assay on LOX IMVI melanoma, with OVCAR-3 ovarian and with OVCAR-8 ovarian was more than 100 µM each time. In addition, the TGI in the assay with SK-OV-3 ovarian, in the assay with SN12C renal, with U251 CNS and in the assay on UACC-257 melanoma was more than 100 µM throughout.
Consider `COc1cc(C(=O)O/N=C(\N)Cc2cccc3ccccc23)cc(OC)c1OC`, for which the GI50 was 7.67 µM in the assay on A549 NSCLC; 5.91 µM in the assay with CAKI-1 renal; 6.64 µM in the assay on HS 578T breast; 3.41 µM in the assay on LOX IMVI melanoma; 9.62 µM in the assay with OVCAR-3 ovarian; 11.5 µM with OVCAR-8 ovarian. Moreover, the GI50 in the assay on SK-OV-3 ovarian is 16.5 µM; in the assay on SN12C renal, 17.4 µM; in the assay with U251 CNS, 12 µM; with UACC-257 melanoma, 15.2 µM. Further, the TGI in the assay with A549 NSCLC was found to be 23.8 µM; in the assay with CAKI-1 renal, 19.5 µM; in the assay with HS 578T breast it was 41.4 µM; with LOX IMVI melanoma, 16.9 µM; in the assay with OVCAR-3 ovarian, 23.3 µM; in the assay with OVCAR-8 ovarian, 43.8 µM. For the same compound, the TGI came out at 30.6 µM in the assay on SK-OV-3 ovarian, 42.3 µM with SN12C renal, 25.8 µM in the assay on U251 CNS and 29.2 µM in the assay on UACC-257 melanoma.
For the compound `CCCCCCCCCCC[C@@H](C[C@H]1OC(=O)[C@H]1CCCCCC)OC(=O)[C@@H](CC(C)C)NC=O`, the GI50 in the assay on A549 NSCLC is 13.1 µM; in the assay with CAKI-1 renal, 5.5 µM; with HS 578T breast, 3.81 µM; in the assay with LOX IMVI melanoma, 1.65 µM; with OVCAR-3 ovarian, 3.17 µM; with OVCAR-8 ovarian, 2.5 µM. Besides, the GI50 with SK-OV-3 ovarian is 10.1 µM; with SN12C renal, 2.42 µM; in the assay with U251 CNS, 2.83 µM; in the assay with UACC-257 melanoma, 38.4 µM. The TGI in the assay on A549 NSCLC is more than 100 µM; in the assay on CAKI-1 renal it was more than 100 µM; in the assay on HS 578T breast it was 40.8 µM; with LOX IMVI melanoma, 9.6 µM; with OVCAR-3 ovarian, 14.5 µM; in the assay on OVCAR-8 ovarian, 15.7 µM. In addition, the TGI in the assay with SK-OV-3 ovarian is 62.8 µM; in the assay on SN12C renal, 12.2 µM; with U251 CNS, 17.2 µM; in the assay on UACC-257 melanoma, more than 100 µM.
In the case of `CCOC(=O)c1ccccc1SC(C[N+](=O)[O-])c1ccccc1` (stereo not given), the GI50 in the assay with A549 NSCLC was 5.18 µM; with CAKI-1 renal it was 14.8 µM; with HS 578T breast it was 12.6 µM; with LOX IMVI melanoma it was 1.81 µM; in the assay with OVCAR-3 ovarian it was 10.4 µM; with OVCAR-8 ovarian, 10.5 µM. The GI50 in the assay on SK-OV-3 ovarian was 12.7 µM; in the assay with SN12C renal, 8.17 µM; with U251 CNS, 12 µM. Also, the TGI with A549 NSCLC was determined as 21.6 µM; in the assay with CAKI-1 renal, 31.2 µM; in the assay on HS 578T breast it was 47.1 µM; in the assay with LOX IMVI melanoma, 3.51 µM; in the assay on OVCAR-3 ovarian, 22.4 µM; in the assay on OVCAR-8 ovarian, 22.5 µM. Besides, the results for the TGI in the assay on SK-OV-3 ovarian, with SN12C renal and in the assay on U251 CNS were 26.5 µM, 20.8 µM and 24.7 µM, respectively.
On to `O=C(Nc1ccc(Nc2ccncc2)cc1)c1ccc(Nc2ccnc3ccc([N+](=O)[O-])cc23)cc1[N+](=O)[O-]`, for which the GI50 with A549 NSCLC is 3.95 µM; with CAKI-1 renal, more than 39.6 µM; with HS 578T breast, 0.691 µM; with LOX IMVI melanoma, 4.82 µM; in the assay with OVCAR-3 ovarian, 24.7 µM; with OVCAR-8 ovarian, 13 µM. Besides, the GI50 in the assay with SK-OV-3 ovarian is 19.3 µM; with SN12C renal, 20.4 µM; with U251 CNS it was 2.76 µM; in the assay with UACC-257 melanoma, 11.3 µM. In addition, the TGI is more than 44.2 µM with A549 NSCLC; more than 83.2 µM in the assay on CAKI-1 renal; more than 51 µM with LOX IMVI melanoma; more than 89.5 µM in the assay with OVCAR-3 ovarian; 45.2 µM in the assay on OVCAR-8 ovarian; 40 µM with SK-OV-3 ovarian. Moreover, the figures for the TGI in the assay with SN12C renal, in the assay on U251 CNS and with UACC-257 melanoma were more than 55.5 µM, more than 24.8 µM and 29.5 µM, respectively.
As for `Cc1ccc2nc3c(n2c1)C(=O)C(=O)c1ccccc1-3`, the GI50 was 0.199 µM with A549 NSCLC; 1.28 µM in the assay with CAKI-1 renal; 0.213 µM with HS 578T breast; 0.132 µM in the assay with LOX IMVI melanoma; 0.285 µM in the assay with OVCAR-3 ovarian; 0.238 µM in the assay on OVCAR-8 ovarian. The GI50 was 1.01 µM with SK-OV-3 ovarian, 0.153 µM in the assay with SN12C renal, 0.176 µM with U251 CNS and 0.146 µM with UACC-257 melanoma. The TGI worked out at 0.62 µM in the assay on A549 NSCLC; 2.71 µM in the assay on CAKI-1 renal; 0.618 µM in the assay on HS 578T breast; 0.276 µM with LOX IMVI melanoma; 1.07 µM with OVCAR-3 ovarian; 0.655 µM with OVCAR-8 ovarian. Further, the TGI in the assay on SK-OV-3 ovarian came out at 2.47 µM; in the assay on SN12C renal, 0.303 µM; in the assay on U251 CNS, 0.419 µM; in the assay on UACC-257 melanoma, 0.382 µM.
Turning to `CC[C@H](C)[C@H](NC(=O)NC(C)(C)C)C(=O)N(C)[C@H](C[C@@H](OC(C)=O)c1nc(C(=O)N[C@@H](Cc2ccccc2)C[C@H](C)C(=O)OC)cs1)C(C)C`, the GI50 with A549 NSCLC is 1.15 µM; in the assay with CAKI-1 renal, 1.12 µM; in the assay with HS 578T breast it was 0.792 µM; in the assay on LOX IMVI melanoma it was 0.768 µM; in the assay on OVCAR-3 ovarian, 0.158 µM; in the assay on OVCAR-8 ovarian, 0.936 µM. Besides, the GI50 in the assay on SK-OV-3 ovarian was 0.734 µM; in the assay on SN12C renal, 1.07 µM; in the assay with U251 CNS, 0.82 µM; in the assay on UACC-257 melanoma, 4.67 µM. For the same compound, the TGI in the assay with A549 NSCLC is more than 25 µM; in the assay on CAKI-1 renal, more than 25 µM; in the assay on HS 578T breast, more than 15.3 µM; in the assay on LOX IMVI melanoma, more than 25 µM; in the assay with OVCAR-3 ovarian, 0.964 µM; in the assay on OVCAR-8 ovarian it was more than 25 µM. The TGI with SK-OV-3 ovarian, with SN12C renal, in the assay on U251 CNS and in the assay with UACC-257 melanoma was more than 25 µM throughout.
As to `COc1cnc2c(c1)C(=O)c1c-2n(CCCNCCN2CCOCC2)c(=O)c2cc([N+](=O)[O-])ccc12`, the GI50 with CAKI-1 renal was 0.0433 µM; in the assay on HS 578T breast it was 3.85 µM; with LOX IMVI melanoma, 0.0413 µM; in the assay with OVCAR-3 ovarian, 0.315 µM; in the assay on OVCAR-8 ovarian, 0.174 µM; in the assay on SK-OV-3 ovarian it was 0.142 µM. Moreover, the GI50 with SN12C renal is 0.0795 µM; in the assay on U251 CNS, 0.0783 µM; with UACC-257 melanoma it was 0.586 µM. Also, the TGI amounted to 7.31 µM with CAKI-1 renal; 26.9 µM in the assay with HS 578T breast; 0.216 µM in the assay with LOX IMVI melanoma; 1.71 µM with OVCAR-3 ovarian; 10.2 µM in the assay on OVCAR-8 ovarian; 1.62 µM in the assay on SK-OV-3 ovarian. For the same compound, the TGI came to 4.59 µM in the assay with SN12C renal, 1.1 µM in the assay with U251 CNS and 13.3 µM in the assay with UACC-257 melanoma.

The values above are taken from PubChem BioAssay (NCI).
